Common to all, as to format: functional
The subject of experiment [1] is Pseudomonas aeruginosa. The experiment is described as follows: Antibacterial activity against clinical colistin-resistant Pseudomonas aeruginosa by microdilution method.
For another experiment, the system named is Klebsiella pneumoniae. Kind of experiment: Antibacterial activity against Klebsiella pneumoniae after 12 to 18 hrs by MTT assay.
In experiment [2] the test system is Pseudomonas aeruginosa. The experiment is described as follows: Antibacterial activity against Pseudomonas aeruginosa after 12 to 18 hrs by MTT assay. For orientation: Formazan colour is commonly taken as a measure of viable cells.
Experiment [3] concerns Escherichia coli. Kind of experiment: Antibacterial activity against Escherichia coli ATCC 25922 after 24 hrs by MTT assay. The following applies: ATCC 25922, 24 h.
The test system of experiment [4] is Staphylococcus aureus. Kind of experiment: Antibacterial activity against methicillin-resistant Staphylococcus aureus after 24 hrs by MTT assay.
Experiment [5] deals with Staphylococcus aureus. The experiment is described as follows: Antibacterial activity against Staphylococcus aureus ATCC 25923 after 12 to 18 hrs by two fold dilution method.
Experiment [6] has as its system Escherichia coli. Kind of experiment: Antibacterial activity against Escherichia coli ATCC 25922 after 12 to 18 hrs by two fold dilution method.

≈ marks a conversion by molar mass, not a printed value. Bounds are passed on as bounds.

A word on the MIC: it is the smallest concentration in the dilution series that meets the test's criterion for growth inhibition. A high value points to weaker potency. As to `NC[C@H]1O[C@H](O[C@H]2[C@H](O)[C@@H](OCCCc3ccc4ccccc4c3)[C@H](N)C[C@@H]2N)[C@H](N)[C@@H](OCCCc2ccc3ccccc3c2)[C@@H]1O`, in the experiment on Pseudomonas aeruginosa [1], inhibition of growth (MIC) required 2 µg/mL (≈ 3.04 µM).

With `NC[C@H]1O[C@H](O[C@H]2[C@H](O)[C@@H](OCCCCc3ccc4ccccc4c3)[C@H](N)C[C@@H]2N)[C@H](N)[C@@H](OCCCCc2ccc3ccccc3c2)[C@@H]1O`, in the experiment on Pseudomonas aeruginosa [1], the MIC amounted to 2 µg/mL (≈ 2.91 µM).

On to `CCCCCCCO[C@@H]1[C@@H](OCCCCCCC)[C@H](N)C[C@H](N)[C@H]1O[C@H]1O[C@H](CN)[C@@H](OCCCCCCC)C[C@H]1N`, for which the MIC in the experiment with Klebsiella pneumoniae amounted to 4 µg/mL (≈ 6.66 µM); against Pseudomonas aeruginosa [2], 4 µg/mL (≈ 6.66 µM); with Escherichia coli [3], 4 µg/mL (≈ 6.66 µM); against Staphylococcus aureus [4], 1 µg/mL (≈ 1.66 µM).

In the experiment on Pseudomonas aeruginosa [1], `NC[C@H]1O[C@H](O[C@H]2[C@H](O)[C@@H](OCCCCCCCCCc3ccc4ccccc4c3)[C@H](N)C[C@@H]2N)[C@H](N)[C@@H](OCCCCCCCCCc2ccc3ccccc3c2)[C@@H]1O` yielded an MIC of 2 µg/mL (≈ 2.42 µM).

Regarding `CCCCCCCCO[C@H]1[C@@H](O[C@@H]2[C@@H](O)[C@H](O[C@H]3O[C@H](CN)[C@@H](O)[C@H](O)[C@H]3N)[C@@H](N)C[C@H]2N)O[C@H](CO)[C@@H](O)[C@@H]1O`, the MIC against Staphylococcus aureus [5] and with Escherichia coli [6] was above 32 µg/mL in each case.

Take `CCCCCCCCO[C@@H]1[C@@H](O)[C@@H](O[C@@H]2[C@@H](O)[C@H](O[C@H]3O[C@H](CN)[C@@H](O)[C@H](O)[C@H]3N)[C@@H](N)C[C@H]2N)O[C@H](CO)[C@H]1O`: the minimal inhibitory concentration (MIC) against Staphylococcus aureus [5] and against Escherichia coli [6] was above 32 µg/mL in each case.

Consider `CCCCCCCCO[C@@H]1[C@@H](O)[C@H](O)[C@H](O[C@H]2[C@H](O)[C@@H](O[C@@H]3O[C@@H](CN)[C@H](O)[C@@H](O)[C@@H]3N)[C@H](N)C[C@@H]2N)O[C@H]1CO` (single isomer, unassigned), for which the minimum inhibitory concentration (MIC) against Staphylococcus aureus [5] and in the experiment with Escherichia coli [6] was above 32 µg/mL each time.

Regarding `CCCCCCCCO[C@@H]1[C@@H](N)[C@H](O)[C@H](O[C@H]2[C@H](O)[C@@H](O[C@@H]3O[C@@H](CN)[C@H](O)[C@@H](O)[C@@H]3N)[C@H](N)C[C@@H]2N)O[C@H]1CO` (single isomer, unassigned), the MIC in the experiment on Staphylococcus aureus [5] and with Escherichia coli [6] was above 32 µg/mL each time.

For `CCCCCCCCO[C@@H]1[C@@H](O[C@H]2O[C@H](CN)[C@@H](O)[C@H](O)[C@H]2N)[C@H](N)C[C@H](N)[C@H]1O[C@H]1O[C@H](CO)[C@@H](O)[C@H](N)[C@H]1O` (stereo in doubt), the MIC in the experiment on Staphylococcus aureus [5] and against Escherichia coli [6] was above 32 µg/mL throughout.

`CCCCCCOC[C@@H]1O[C@@H](O[C@@H]2[C@@H](O)[C@H](O[C@@H]3O[C@@H](CN)[C@H](O)[C@@H](O)[C@@H]3N)[C@@H](N)C[C@H]2N)[C@@H](O)[C@H](O)[C@H]1O` (stereo in doubt): the MIC with Staphylococcus aureus [5] and against Escherichia coli [6] was above 32 µg/mL in each case.

Take `CCCCCCCCO[C@@H]1[C@@H](O[C@H]2O[C@H](CN)[C@@H](O)[C@H](O)[C@H]2N)[C@H](N)C[C@H](N)[C@H]1O[C@H]1O[C@H](CO)[C@@H](O)[C@H](O)[C@H]1O` (stereo in doubt): the MIC with Staphylococcus aureus [5] and in the experiment on Escherichia coli [6] was above 32 µg/mL in each case.

As to `CCCCCCCCOC[C@@H]1O[C@@H](O[C@@H]2[C@@H](O)[C@H](O[C@@H]3O[C@@H](CN)[C@H](O)[C@@H](O)[C@@H]3N)[C@@H](N)C[C@H]2N)[C@@H](O)[C@H](O)[C@H]1O` (stereo in doubt), the MIC with Staphylococcus aureus [5] and in the experiment on Escherichia coli [6] was above 32 µg/mL in each case.

(Values after ChEMBL document CHEMBL3797195, “Bacterial lipid membranes as promising targets to fight antimicrobial resistance, molecular foundations and illustration through the renewal of aminoglycoside antibiotics and emergence of amphiphilic aminoglycosides” (2016).)
